Test results as given in US9456997B2, “Selective inhibition of β1-adrenergic receptors for the treatment of pediatric heart failure” (THE REGENTS OF THE UNIVERSITY OF COLORADO, A BODY CORPORATE, priority 2010, dated 2016).
Entries after “also recorded” stand apart in the source; their conditions may differ. Where two headings read alike, the source gives them in different places.

Legend:
[1] = tested on: isoproterenol challenged young and old mice; test: Mouse model of pediatric heart failure: cardiac growth (HW/BW) in response to isoproterenol with or without β-blocker; format: in vivo; conditions: for heart weight to body weight ratio (HW/BW), response to ISO: older mice; for heart weight to body weight ratio (HW/BW), response to ISO / cardiac growth response to ISO (HW/BW): isoproterenol 30 mg/kg/day 7 days, β-blocker in drinking water, versus same age ISO; for pathologic growth response to isoproterenol: isoproterenol 7 days, β-blocker via subcutaneously implanted pump
Description: (§1) Since a primary characteristic of human heart failure is endogenous catecholamine (epinephrine and norepinephrine; full β1 and β2 receptor agonists) excess, they challenged the mice with isoproterenol (an exogeous full β1 and β2 receptor agonist) for 7 days using a subcutaneous miniosmotic pump at a dose (30 mg/kg/day) that has previously been associated with cardiac hypertrophy in adult mice and has been used as a model of cardiac hypertrophy and heart failure in adult […]. Higher doses (120 mg/kg/day) for 14 days cause a dilated heart failure phenotype, providing further evidence that this is an appropriate HF model. Half the animals received the isoproterenol treatment and the other half were treated with placebo pumps filled with normal saline and vitamin C, the vehicle that the isoproterenol is dissolved in. The young and old animals were divided into 2 studies: one for carvedilol treatment and one for metoprolol treatment (the study design for each animal study is illustrated in FIG. 8). […] The amount of water consumed was measured on a daily basis and all groups consumed similar amounts of water. In a second study to further support hypothesis (i) above and provide evidence of a class effect among β1-selective antagonists, young mice were divided into 2 studies one for bisoprolol and one for nebivolol. […] After 7 days of treatment, the hearts were removed and assessed for cardiac growth in response to isoproterenol with or without the β-blocker. Protein was isolated from the hearts of young and old mice in the presence or absence of isopreterenol without any β-blocker treatment assessed for phosphorylation of phospholamban by Western blot as outlined above.

[2] = tested on: HF patients (adult population); conditions: cited from earlier work
β1 and β2 receptors = conditions: cited from earlier work; for β1 receptor selectivity: in words
[3] = tested on: adult mouse models of myocardial infarction; conditions: adult mouse models of myocardial infarction (Ahmet, 2004; 2005; 2008); cited from earlier work
caspase 3 = test: Caspase 3 levels in young mouse hearts by Western blot; format: in vivo; conditions: young mice, heart, one week of treatment, versus placebo
Description: (§2) Western blots were performed as previously described by the inventors. Antibodies for total and phosphorylated PLB were diluted 1:15000 and antibodies for total and phosphorylated Akt were diluted 1:1000 in 1×TBS (20 mM Tris 500 mM NaCl pH 7.5) containing 3% BSA and 0.1% tween and incubated with the blot overnight at 4° C.
(§3) To address hypothesis (iv) above a third study was performed in the young mice to provide evidence of the beneficial effects of exogenous β2-selective agonism with fenoterol. […] The methodology was identical to that outlined in the carvedilol and metoprolol studies above. Protein was isolated from the placebo, fenoterol and isoproterenol treated mouse hearts and phosphorylation of Akt and expression of Caspase 3 was determined to confirm the beneficial effects of fenoterol treatment.

Akt = test: Phosphorylation of Akt in young mouse hearts by Western blot; format: in vivo; conditions: young mice, heart, one week of treatment, versus placebo
Description: as §2, §3

[4] = tested on: phospholamban (Ser16, Thr17); test: Phospholamban phosphorylation in mouse hearts by Western blot; format: in vivo; conditions: isoproterenol challenged versus control
Description: as §2, §1

[5] = tested on: children with heart failure; conditions: Pediatric Carvedilol Trial, cited from earlier work

COCCc1ccc(OCC(O)CNC(C)C)cc1 (stereo not shown) [Metoprolol]
heart weight to body weight ratio (HW/BW), response to ISO [1]: lower
cardiac growth response to ISO (HW/BW) ([1]; young mice): blunted
cardiac growth response to ISO (HW/BW) ([1]; young mice, listed as metoprolol): demonstrated benefit
Mortality Benefit, RR reduction ([2]; MERIT-HF trial): 34% RR
β1 receptor selectivity (β1 and β2 receptors): selectively blocks the β1 receptor

OC(CNCC(O)C1CCc2cc(F)ccc2O1)C1CCc2cc(F)ccc2O1 (stereo not shown) [Nebivolol]
pathologic growth response to isoproterenol ([1]; young mice): significantly suppressed
pathologic growth response to isoproterenol ([1]; young mice, listed as nebivolol): significant blunting
Mortality or Hospitalization Benefit, RR reduction ([2]; SENIORS trial): 14% RR
β1 receptor selectivity (β1 and β2 receptors): higher selectivity than Metoprolol

CC(C)NCC(O)COc1ccc(COCCOC(C)C)cc1 (stereo not shown) [Bisoprolol]
pathologic growth response to isoproterenol ([1]; young mice): significantly suppressed
pathologic growth response to isoproterenol ([1]; young mice, listed as bisoprolol): significant blunting
Mortality Benefit, RR reduction ([2]; CIBIS trial): 32% RR
β1 receptor selectivity (β1 and β2 receptors): higher selectivity than Metoprolol

CC(Cc1ccc(O)cc1)NCC(O)c1cc(O)cc(O)c1 (stereo not shown) [Fenoterol, fenoterol]
myocardial remodeling and function [3]: improvements in myocardial remodeling and function
caspase 3 levels (caspase 3; listed as fenoterol): maintaining only basal levels; also recorded: did not induce
phosphorylation of Akt (Akt): induced
phosphorylation of Akt (Akt; listed as fenoterol): increasing

CC(C)NCC(O)c1ccc(O)c(O)c1 (stereo not shown) [Isoproterenol, isoproterenol]
pathologic cardiac growth produced by the agonist ([1]; young and old mice, 30 mg/kg/day for 7 days, subcutaneous miniosmotic pump): significant pathologic cardiac growth
growth response elicited by the agonist ([1]; young mice, placebo (no β-blocker) treated animals, bisoprolol and nebivolol cohorts): significant growth response
caspase 3 levels (caspase 3): increased
phosphorylation of Akt (Akt): decreased
phospholamban phosphorylation at serine 16 ([4]; old (adult) mice): dephosphorylated; also recorded: lower
phospholamban phosphorylation at threonine 17 ([4]; old (adult) mice): dephosphorylated; also recorded: lower
phospholamban phosphorylation at serine 16 ([4]; young mice): unchanged
phospholamban phosphorylation at threonine 17 ([4]; young mice): unchanged

COc1ccccc1OCCNCC(O)COc1cccc2[nH]c3ccccc3c12 (stereo not shown) [Carvedilol]
heart weight to body weight ratio (HW/BW), response to ISO [1]: lower
cardiac growth response to ISO (HW/BW) ([1]; young mice): no benefit
cardiac growth response to ISO (HW/BW) ([1]; young mice, listed as Coreg): no influence
Outcome (clinical benefit) ([5]; listed as carvedilol): lack of clinical benefit
Outcome (clinical benefit) [5]: no clinical benefit
Mortality Benefit, RR reduction ([2]; CAPRICORN trial): 23% RR
Mortality Benefit, RR reduction ([2]; COPERNICUS trial): 35% RR
Mortality Benefit, RR reduction ([2]; US Coreg HF trial): 65% RR
blockade of β2 receptors relative to β1 receptors (β1 and β2 receptors; β2 over β1): up to 7 times
